Measurements: patent publication US20240116923A1, “USE OF INDOLE, 6- AND 7-AZAINDOLE DERIVATIVES AS INHIBITORS OF FERROPTOSIS REGULATED CELL DEATH” (Seabelife, priority 2021, published 2024)
Read-outs that look alike come from different tables or passages of the source.

Legend:
[1] = system: mouse hippocampal neuronal cell line HT22; experiment: Neurotoxicity and excitotoxicity assay, HT22 cells + glutamate, erastin or RSL3, MTS cell viability; assay type: cell-based; settings: Mus musculus
Protocol: (§1) The excitotoxicity model used was the mouse hippocampal neuronal HT22 cells treated with glutamate [Dixon et al., Cell, 2012, 149(5), 1060-1072]. Ferroptosis and oxidative stress are both associated in this glutamate-induced cell death [Chu et al., Neural Regen. Res., 2020, 15(3), 528-536]. Phenotypic screening was also carried out with additional cell death inducers, erastin and RSL3 ((1S,3R)-Ras-selective lethal), in HT22 and SH-SY5Y (human neuroblastoma cells). Erastin and RSL3 are well described molecules, used as chemical tools for the study of ferroptosis regulation and neuronal pathologies [Lewerenz et al., Front. Neurosci., 2018, 12: 214; Reichert et al., Int. J. Mol. Sci., 2020, 21, 8765].
(§2) Mouse hippocampal neuronal cell line (HT22, ATCC) and human neuroblastoma cell line (SH-SY5Y, ATCC) were grown in Dulbecco's Modified Eagle Medium (DMEM, Gibco) supplemented with 10% fetal bovine serum (FBS, Gibco) at 37° C. under 5% CO2 atmosphere. Neurotoxicity was induced by erastin or RSL3 and excitotoxicity was induced by glutamate. Cells were seeded in 96-well plates at 5,000 and 10,000 cells/well for HT22 and SH-SY5Y cell lines, respectively. Cells were treated with 0.5-1 μM Erastin (HT22 cells) or 10 μM Erastin (SH-SY5Y cells) or 5-10 mM glutamate (HT22 cells) or 0.5 μM RSL3 (HT22 cells) or 5 μM RSL3 (SH-SY5Y cells) for 24 h in presence of increasing concentrations of inhibitors. Cells treated with DMSO only were used as controls. Cell viability was assessed by MTS assay (CellTiter 96 AQueous One Solution Cell Proliferation assay, Promega).
(§3) In FIGS. 1, 2A and 2B, an inhibitor was added to HT22 (FIG. 1: compound 6) or SH-SY5Y (FIG. 2A: compound 6; FIG. 2B: compound 25) cells in the presence or not of cell death inducers (erastin, glutamate or RSL3). […] EC50 values for compounds 1-28 were calculated from dose-response curves using Graphpad Prism software.

[2] = system: human neuroblastoma cell line SH-SY5Y; experiment: Neurotoxicity assay, SH-SY5Y cells + erastin or RSL3, MTS cell viability; assay type: cell-based; settings: Homo sapiens
Protocol: as §1, §2, §3

[3] = HT-22, HT22 cells, 0.5 μM RSL3, 24 h, MTS, read-out: EC50 HT22 RSL3
[4] = HT-22, HT22 cells, 0.5-1 μM Erastin, 24 h, MTS, read-out: EC50 HT22 Erastin
[5] = HT-22, HT22 cells, 5-10 mM glutamate, 24 h, MTS, read-out: EC50 HT22 Glutamate
[6] = SH-SY5Y cells, 5 μM RSL3, 24 h, MTS, read-out: EC50 SH-SY5Y RSL3
[7] = SH-SY5Y cells, 10 μM Erastin, 24 h, MTS, read-out: EC50 SH-SY5Y Erastin

**Q.** Which EC50 [1, 3] does the source give for CCOc1ccc(-c2cc3c(-c4ccc(C(=O)c5ccccc5)cc4)ccn(Cc4ccccc4)c-3n2)cc1 [Compound 28, (4-(7-benzyl-2-(4-ethoxyphenyl)-7H-pyrrolo[2,3-b]pyridin-4-yl)phenyl)(phenyl)methanone] here?
**A.** 17.3 µM

**Q.** What about the EC50 [1, 4] of the same compound?
**A.** 23.9 µM

**Q.** What about the EC50 [1, 5] of the same compound?
**A.** 14.8 µM

**Q.** What about the EC50 [2, 6] of the same compound?
**A.** 15800 nM

**Q.** What about the EC50 [2, 7] of the same compound?
**A.** 31300 nM

**Q.** Which EC50 [1, 3] does the source give for CC(C)(C)OC(=O)n1c(-c2ccc(O)cc2)cc2ccccc21 [Compound 29, tert-butyl 2-(4-hydroxyphenyl)-1H-indole-1-carboxylate] here?
**A.** 3.96 µM

**Q.** What about the EC50 [1, 4] of the same compound?
**A.** 8.3 µM

**Q.** What about the EC50 [1, 5] of the same compound?
**A.** 5.5 µM

**Q.** What about the EC50 [2, 6] of the same compound?
**A.** 1460 nM

**Q.** Which EC50 ([1]; HT-22, 24 h, read-out: EC50 HT22 Erastin) does the source give for CCOc1ccc(-c2cc3ccncc3n2OC(=O)N(CC)CC)cc1 [Compound 34, 2-(4-ethoxyphenyl)-1H-pyrrolo[2,3-c]pyridin-1-yl diethylcarbamate] here?
**A.** > 50 µM

**Q.** What about the EC50 ([1]; HT-22, 24 h, read-out: EC50 HT22 RSL3) of the same compound?
**A.** 16.8 µM

**Q.** And the EC50 ([2]; SH-SY5Y, 24 h, read-out: EC50 SH-SY5Y RSL3)?
**A.** 6620 nM

**Q.** With CCOc1ccc(-c2cc3ccc(C#N)nc3[nH]2)cc1 [Compound 35, 2-(4-ethoxyphenyl)-1H-pyrrolo[2,3-b]pyridine-6-carbonitrile] as the compound, how does the EC50 [1, 3] read?
**A.** 5.4 µM

**Q.** What about the EC50 [1, 4] of the same compound?
**A.** 17 µM

**Q.** What about the EC50 [2, 6] of the same compound?
**A.** 1030 nM

**Q.** And the EC50 [2, 7]?
**A.** 5950 nM

**Q.** Which results are given for CCOc1ccc(-c2cc3ccc(N)nc3[nH]2)cc1 [Compound 36, 2-(4-ethoxyphenyl)-1H-pyrrolo[2,3-b]pyridin-6-amine]?
**A.** EC50 [1, 3]: 0.27 µM; EC50 [1, 4]: 0.32 µM; EC50 [2, 6]: 70 nM; EC50 [2, 7]: 230 nM

**Q.** Which results are given for Oc1ccc(-c2cc3ccc(Cl)nc3[nH]2)cc1 [Compound 37, 4-(6-chloro-1H-pyrrolo[2,3-b]pyridin-2-yl)phenol]?
**A.** EC50 [1, 3]: 9.11 µM; EC50 [1, 4]: 11.8 µM; EC50 [2, 6]: 1220 nM; EC50 [2, 7]: 7130 nM

**Q.** CCOc1ccc(-c2cc3ccc(OC(C)=O)nc3[nH]2)cc1 [Compound 38] was tested. Which EC50 [1, 3] did it give?
**A.** 2.56 µM

**Q.** And the EC50 [1, 4]?
**A.** 6.78 µM

**Q.** And the EC50 [2, 6]?
**A.** 200 nM

**Q.** What about the EC50 [2, 7] of the same compound?
**A.** 1610 nM

**Q.** Which results are given for COc1ccc(-c2ccc3cc(-c4ccc(O)cc4)[nH]c3n2)cn1 [Compound 39, 4-(6-(6-methoxypyridin-3-yl)-1H-pyrrolo[2,3-b]pyridin-2-yl)phenol]?
**A.** EC50 [1, 3]: 16.1 µM; EC50 [1, 4]: 16.1 µM; EC50 [2, 6]: 1470 nM; EC50 [2, 7]: 5830 nM

**Q.** Which EC50 [1, 3] does the source give for Oc1ccc(-c2cc3ccc(-c4ccc(O)nc4)nc3[nH]2)cc1 [Compound 40, 5-(2-(4-hydroxyphenyl)-1H-pyrrolo[2,3-b]pyridin-6-yl)pyridin-2-ol] here?
**A.** 4.98 µM

**Q.** And the EC50 [1, 4]?
**A.** 13.3 µM

**Q.** And the EC50 [2, 6]?
**A.** 950 nM

**Q.** And the EC50 [2, 7]?
**A.** 5060 nM

**Q.** For CCOc1ccc(-c2cc3ccc(-c4cn[nH]c4)nc3[nH]2)cc1 [Compound 41, 2-(4-ethoxyphenyl)-6-(1H-pyrazol-4-yl)-1H-pyrrolo[2,3-b]pyridine], which EC50 [1, 3] is on record?
**A.** 6.5 µM

**Q.** And the EC50 [2, 6]?
**A.** 2210 nM

**Q.** And the EC50 [2, 7]?
**A.** 3680 nM

**Q.** Which EC50 [1, 3] does the source give for CCOc1ccc(-c2cc3ccc(Cc4ccncn4)nc3[nH]2)cc1 [Compound 42] here?
**A.** 7.06 µM

**Q.** And the EC50 [1, 4]?
**A.** 8.04 µM

**Q.** What about the EC50 [2, 6] of the same compound?
**A.** 1840 nM

**Q.** And the EC50 [2, 7]?
**A.** 3620 nM

**Q.** For CCOc1ccc(-c2cc3c(Nc4ccccc4)ccnc3n2S(=O)(=O)c2ccccc2)cc1 [Compound 43, 2-(4-ethoxyphenyl)-N-phenyl-1-(phenylsulfonyl)-1H-pyrrolo[2,3-b]pyridin-4-amine], which EC50 [1, 3] is on record?
**A.** 2.35 µM

**Q.** And the EC50 [1, 4]?
**A.** 0.53 µM

**Q.** And the EC50 [2, 6]?
**A.** 1350 nM

**Q.** What about the EC50 [2, 7] of the same compound?
**A.** 1640 nM

**Q.** CCOc1ccc(-c2cc3c(N(C)c4ccccc4)ccnc3[nH]2)cc1 [Compound 44, 2-(4-ethoxyphenyl)-N-methyl-N-phenyl-1H-pyrrolo[2,3-b]pyridin-4-amine] was tested. Which EC50 [1, 3] did it give?
**A.** 7.12 µM

**Q.** And the EC50 [1, 4]?
**A.** 0.43 µM

**Q.** What about the EC50 [2, 6] of the same compound?
**A.** 2660 nM

**Q.** What about the EC50 [2, 7] of the same compound?
**A.** 4430 nM
